Each molecule was assayed against T1, human vasopressin V1a receptor subtype (Homo sapiens, UniProt P37288) (assay: Vasopressin binding in CHO cell membranes expressing human vasopressin V1a subtype receptors ([3H]Manning ligand radioligand binding)). Settings: @ 100 nM.
T1 construct: host or cells: CHO cells; pZeoSV vector for the Thibonnier line
From the text: Vasopressin Binding in Chinese Hamster Ovary Cell Membranes Expressing Human Vasopressin V1a Subtype Receptors
Chinese hamster ovary cells (CHO cells) stably transfected with the human vasopressin V1a subtype receptors were either obtained from BioSignal Inc., 1744 rue Williams, Montreal, Quebec, Canada or obtained from M. Thibonnier, Case Western Reserve University School of Medicine, Cleveland, Ohio.
A. Passaging and Amplification of Cells
CHO cells transfected with the human vasopressin V1a subtype receptors obtained from M. Thibonnier (pZeoSV vector) are allowed to grow to confluency (approx. >90%) in T-150 flasks under sterile conditions, in a cell culture medium of F-12 Nutrient Mixture (HAM) with L-glutamine (Gibco Cat. #11765-054) containing 15 mM HEPES (Gibco Cat. #15630-080), 1% antibiotic/antimycotic (add 5 mL 100×, Gibco Cat. #15240-062 per 500 mL F-12), 250 μg/mL Zeocin (add 1.25 mL of 100 mg/mL Invitrogen R-250-01 per 500 mL F-12) and 10% Fetal Bovine Serum (Qualified, heat inactivated, Gibco Cat. #16140-063). The medium is removed by aspiration and the cells are washed with 10 mL of Hank's Balanced Salt solution (Gibco Cat. #14175-095). The salt solution is removed by aspiration and the cells are trypsinized with 5 mL of trypsin-EDTA (0.05% trypsin, 0.53 mM EDTA-4Na, Gibco Cat. #25300-070) for 1 min. The trypsin is removed by aspiration and the cells dislodged by tapping. Cell Culture medium (e.g. 30 mL for 1:30 split) is immediately added and mixed well to inactivate trypsin. 1 mL of detached cells is added to new culture flasks containing fresh cell culture medium (e.g., into 25 mL per T-150 flask), and mixed gently. The cells are incubated at 37° C. in 5% CO2. The medium is changed at 3 to 4 days interval (or as appropriate). The cells grow to confluency (approx. >75%-95%) within 7-8 days. All steps are done under sterile conditions.
The cells are washed twice gently with Hank's Balanced Salt solution (e.g,. use 10 mL per T-150 flask). The excess is removed and the cells are bathed for 15-30 min. in an enzyme-free Cell Dissociation Buffer (e.g. use 8 mL Hank's Based, Gibco Cat. #13150-016 per T-150 flask) until the cells are loosened. The contents are transferred to centrifuge tubes (50 mL) kept in an ice bath. All subsequent steps are done at 4° C. The tubes are centrifuged at 300×g for 15 min (1380 rpm on SORVAL, Model RT6000D, using the rotor for 50 mL tubes). The supernatant is discarded and the cells suspended in homogenizing buffer(10 mM Tris-HCl containing 0.25 M sucrose and 1 mM EDTA, pH 7.4) ensuring that the volume of the buffer is about ten times the volume of the cell pellet. The cells are pooled into a centrifuge tube (50 mL) and homogenized with Polytron at setting 6 for 10 sec. The homogenate is transferred into a Potter-Elvjehm homogenizer and homogenized with 3 strokes. The homogenate is centrifuged at 1500×g for 10 min at 4° C. (3100 rpm using SORVAL, model RT6000D, using the rotor for 50 mL tubes). The pellet is discarded. The supernatant is centrifuged at 100,000×g for 60 min. at 4° C. (Beckman L8-80M ultracentrifuge; spin at 37,500 rpm with rotor type 70 Ti for 50 mL tubes; 38,000 rpm with type 80Ti for 15 mL tubes; or 35,800 rpm with rotor type 45Ti). The supernantant is discarded and the pellet suspended in 3 to 4 mL of Tris buffer (50 mM TRIS—HCl, pH 7.4). The protein content is estimated by the Bradford or Lowry method. The volume of the membrane suspension is adjusted with the membrane buffer (50 mM Tris-HCl containing 0.1% BSA and 0.1 mM PMSF) to give 3.0 mg/mL (or as appropriate) of protein. The membranes are aliquoted and stored at −70° C.
C. Radioligand Binding Assay […]

T1 sequence (P37288 whole entry): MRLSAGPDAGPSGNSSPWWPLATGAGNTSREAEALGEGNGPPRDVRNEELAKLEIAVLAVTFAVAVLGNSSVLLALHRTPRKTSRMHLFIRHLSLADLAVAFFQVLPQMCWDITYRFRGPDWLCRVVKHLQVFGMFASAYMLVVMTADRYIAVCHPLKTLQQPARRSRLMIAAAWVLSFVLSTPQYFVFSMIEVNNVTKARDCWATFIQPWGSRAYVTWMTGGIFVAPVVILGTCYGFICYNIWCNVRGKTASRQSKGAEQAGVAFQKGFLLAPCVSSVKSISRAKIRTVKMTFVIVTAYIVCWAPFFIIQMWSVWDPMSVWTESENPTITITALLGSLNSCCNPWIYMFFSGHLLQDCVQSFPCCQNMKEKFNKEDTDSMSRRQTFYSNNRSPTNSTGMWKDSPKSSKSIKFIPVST

Going from `COc1cc2c(cc1OC)N(C(=O)c1ccc(-c3ccccc3OC)c(C)c1)Cc1ccc(C(=O)N(C)C[C@H](O)[C@@H](O)[C@H](O)[C@H](O)CO)n1C2` [Example 37, 7,8-Dimethoxy-10-[(2′-methoxy-2-methyl-[1,1′-biphenyl]-4-yl)carbonyl]-10,11-dihydro-5H-pyrrolo[2,1-c][1,4]benzodiazepine-3-carboxylic acid methyl-[(2S, 3R, 4R, 5R)-2,3,4,5,6-pentahydroxy-hexyl)-amide] to `COc1cc2c(cc1OC)N(C(=O)c1ccc(-c3ccccc3C(F)(F)F)c(C)c1)Cc1ccc(C(=O)N(C)CC(O)CO)n1C2` (stereo not shown) [Example 18, N-(2,3-Dihydroxypropyl)-7,8-dimethoxy-N-methyl-10-{[2-methyl-2′-trifluoromethyl-[1,1′-biphenyl]-4-yl]carbonyl}-10,11-dihydro-5H-pyrrolo[2,1-c][1,4]benzodiazepine-3-carboxamide], the inhibition at 0.1 µM falls from 6% to 0%.

`COc1cccc(-c2cc(OC)c(C(=O)N3Cc4ccc(C(=O)N5CCN(CCO)CC5)n4Cc4ccccc43)cc2Cl)c1` [Example 49, {10-[(6-Chloro-3,3′-dimethoxy[1,1′-biphenyl]-4-yl)carbonyl]-10,11-dihydro-5H-pyrrolo[2,1-c][1,4]benzodiazepin-3-yl}[4-(2-hydroxyethyl)-1-piperazinyl]methanone] and `COc1ccccc1-c1ccc(C(=O)N2Cc3ccc(C(=O)N4CCN(CCO)CC4)n3Cc3ccccc32)cc1OC` [Example 43, {10-[(2,2′-Dimethoxy[1,1′-biphenyl]-4-yl)carbonyl]-10,11-dihydro-5H-pyrrolo[2,1-c][1,4]benzodiazepin-3-yl}[4-(2-hydroxyethyl)-1-piperazinyl]methanone] are the same in inhibition at 0.1 µM: 1% for the first, 1% for the second.

First: COc1cc(C(=O)N2Cc3ccc(C(=O)N4CCN(CCO)CC4)n3Cc3ccccc32)ccc1-c1ccccc1C [Example 42, [4-(2-Hydroxyethyl)-1-piperazinyl]{10-[(2-methoxy-2′-methyl[1,1′-biphenyl]-4yl)carbonyl]-10,11-dihydro-5H-pyrrolo[2,1-c][1,4]benzodiazepin-3-yl}methanone]
Second: Cc1ccccc1-c1ccc(C(=O)N2Cc3ccc(C(=O)N4CCN(CCO)CC4)n3Cc3ccccc32)cc1C [Example 46, {10-[(2,2′-Dimethyl[1,1′-biphenyl]-4-yl)carbonyl]-10,11-dihydro-5H-pyrrolo[2,1-c][1,4]benzodiazepin-3-yl}[4-(2-hydroxyethyl)-1-piperazinyl]methanone]
The inhibition at 0.1 µM of the first is lower: 49% for the first, 53% for the second.

`COc1ccccc1-c1ccc(C(=O)N2Cc3ccc(C(=O)N4CCN(CCO)CC4)n3Cc3ccccc32)cc1` [Example 47, [4-(2-Hydroxyethyl)-1-piperazinyl]{10-[(2′-methoxy[1,1′-biphenyl]-4-yl)carbonyl]-10,11-dihydro-5H-pyrrolo[2,1-c][1,4]benzodiazepin-3-yl}methanone] was tested, and the inhibition at 0.1 µM was 12%.

Same assay, conditions: value printed in parentheses

Compared with `Cc1cc(C(=O)N2Cc3ccc(C(=O)N(CCO)CCO)n3Cc3ccccc32)ccc1-c1ccccc1C(F)(F)F` [Example 1, 10-[(2-Methyl-2′-trifluoromethyl-[1,1′-biphenyl]-4-yl)carbonyl]-10,11-dihydro-5H-pyrrolo[2,1-c][1,4]benzodiazepine-3-carboxylic acid bis-(2-hydroxy-ethyl)-amide], `COc1cc(C(=O)N2Cc3ccc(C(=O)N(C)CC(O)CO)n3Cc3ccccc32)ccc1-c1ccccc1C(F)(F)F` (stereo not shown) [Example 21, N-(2,3-Dihydroxypropyl)-10-{[2-methoxy-2′-trifluoromethyl-[1,1′-biphenyl]-4-yl]carbonyl}-N-methyl-10,11-dihydro-5H-pyrrolo[2,1-c][1,4]benzodiazepine-3-carboxamide] is 3.7-fold lower in IC50: 1.39 µM for the first, 0.376 µM for the second.

`COC[C@H](O)CN1CCN(C(=O)c2ccc3n2Cc2ccccc2N(C(=O)c2ccc(-c4ccccc4C(F)(F)F)c(C)c2)C3)CC1` [Example 8, (2R)-1-Methoxy-3-{4-[(10-{[2-methyl-2′-trifluoromethyl-[1,1′-biphenyl]-4-yl]carbonyl}-10,11-dihydro-5H-pyrrolo[2,1-c][1,4]benzodiazepin-3-yl)carbonyl]piperazin-1-yl}propan-2-ol] and `COC[C@@H](O)CN1CCN(C(=O)c2ccc3n2Cc2ccccc2N(C(=O)c2ccc(-c4ccccc4C(F)(F)F)c(C)c2)C3)CC1` [Example 9, [3-({4-[(2S)-2-Hydroxy-3-methoxypropyl]-1-piperazinyl}carbonyl)-5H-pyrrolo[2,1-c][1,4]benzodiazepin-10(11H)-yl][2-methyl-2′-trifluoromethyl-[1,1′-biphenyl]-4-yl]methanone] are within 1.5-fold of each other in IC50: 1.97 µM for the first, 2.01 µM for the second.

Going from `COc1ccccc1-c1ccc(C(=O)N2Cc3ccc(C(=O)N(C)CC(O)CO)n3Cc3ccccc32)cc1C` (stereo not shown) [Example 14, 10-[(2′-Methoxy-2-methyl-[1,1′-biphenyl]-4-yl)carbonyl]-10,11-dihydro-5H-pyrrolo[2,1-c][1,4]benzodiazepine-3-carboxylic acid (2,3-dihydroxy-propyl)-methyl-amide] to `COc1cc(-c2ccccc2C(F)(F)F)c(Cl)cc1C(=O)N1Cc2ccc(C(=O)N(C)C[C@H](O)[C@@H](O)[C@H](O)[C@H](O)CO)n2Cc2ccccc21` [Example 20, 10-{[6-Chloro-3-methoxy-2′-trifluoromethyl-[1,1′-biphenyl]-4-yl]carbonyl}-N-methyl-N-[(2S,3R,4R,5R)-2,3,4,5,6-pentahydroxyhexyl]-10,11-dihydro-5H-pyrrolo[2,1-c][1,4]benzodiazepine-3-carboxamide], the IC50 rises from 0.144 µM to 3.1 µM (22-fold).
